Measurements from ChEMBL document CHEMBL4665709, “Rational Avoidance of Protease Cleavage Sites and Symmetrical End-Tagging Significantly Enhances the Stability and Therapeutic Potential of Antimicrobial Peptides” (J Med Chem, 2020).
In brackets after ≈: the same amount, converted by molar mass. Where a SMILES comes first, the peptide text is derived from it.

Experiments:
[1] = Therapeutic index, ratio of MHC for human RBC to geometric mean of peptide MIC for methicillin-resistant Staphylococcus aureus 43300; assay type: toxicity; conditions: human red blood cells (RBC), read-out: TI
[2] = Cytotoxicity against HEK-293T cells assessed as cell viability at 128 uM by MTT assay relative to control; assay type: cell-based; conditions: human, read-out: Activity
[3] = tested on: Salmonella typhimurium; assay: Antibacterial activity against Salmonella typhimurium 14028 after 18 to 24 hrs by CLSI-based broth microdilution method; assay type: functional, Salmonella enterica subsp. enterica serovar Typhimurium; conditions: Salmonella enterica, time hrs 18-24
[4] = Therapeutic index, ratio of MHC for human RBC to geometric mean of peptide MIC for Enterococcus faecalis ATCC 29212; assay type: toxicity; conditions: human red blood cells (RBC), read-out: TI
[5] = Therapeutic index, ratio of MHC for human RBC to geometric mean of peptide MIC for Salmonella choleraesuis 503; assay type: toxicity; conditions: human red blood cells (RBC), read-out: TI
[6] = Therapeutic index, ratio of MHC for human RBC to geometric mean of peptide MIC for Staphylococcus epidermidis ATCC 12228; assay type: toxicity; conditions: human red blood cells (RBC), read-out: TI
[7] = Hemolytic activity in human RBC assessed as hemolysis at 1 to 128 uM relative to control; assay type: ADME, cell-based, Erythrocyte; conditions: human red blood cells (RBC), dose 1-128 µM, read-out: Activity
[8] = tested on: Staphylococcus aureus; assay: Antibacterial activity against Staphylococcus aureus 11011 after 18 to 24 hrs by CLSI-based broth microdilution method; assay type: functional; conditions: time hrs 18-24
[9] = tested on: Salmonella typhimurium; assay: Antibacterial activity against Salmonella typhimurium 7731 after 18 to 24 hrs by CLSI-based broth microdilution method; assay type: functional, Salmonella enterica subsp. enterica serovar Typhimurium; conditions: Salmonella enterica, time hrs 18-24
[10] = tested on: Escherichia coli; assay: Antibacterial activity against Escherichia coli UB1005 after 18 to 24 hrs by CLSI-based broth microdilution method; assay type: functional; conditions: time hrs 18-24
[11] = Therapeutic index, ratio of MHC for human RBC to geometric mean of peptide MIC for Staphylococcus aureus ATCC 29213; assay type: toxicity; conditions: human red blood cells (RBC), read-out: TI
[12] = Therapeutic index, ratio of MHC for human RBC to geometric mean of peptide MIC for Salmonella typhimurium 14028; assay type: toxicity; conditions: human red blood cells (RBC), read-out: TI
[13] = tested on: Staphylococcus aureus; assay: Antibacterial activity against methicillin-resistant Staphylococcus aureus 43300 after 18 to 24 hrs by CLSI-based broth microdilution method; assay type: functional; conditions: time hrs 18-24
[14] = Therapeutic index, ratio of MHC for human RBC to geometric mean of peptide MIC for Escherichia coli UB1005; assay type: toxicity; conditions: human red blood cells (RBC), read-out: TI
[15] = Therapeutic index, ratio of MHC for human RBC to geometric mean of peptide MIC for Staphylococcus aureus 11011; assay type: toxicity; conditions: human red blood cells (RBC), read-out: TI
[16] = tested on: Salmonella enterica; assay: Antibacterial activity against Salmonella choleraesuis 503 after 18 to 24 hrs by CLSI-based broth microdilution method; assay type: functional; conditions: time hrs 18-24
[17] = Therapeutic index, ratio of MHC for human RBC to geometric mean of peptide MIC for Streptococcus agalactiae H92; assay type: toxicity; conditions: human red blood cells (RBC), read-out: TI
[18] = tested on: Streptococcus agalactiae; assay: Antibacterial activity against Streptococcus agalactiae H92 after 18 to 24 hrs by CLSI-based broth microdilution method; assay type: functional; conditions: time hrs 18-24
[19] = tested on: Staphylococcus epidermidis; assay: Antibacterial activity against Staphylococcus epidermidis ATCC 12228 after 18 to 24 hrs by CLSI-based broth microdilution method; assay type: functional; conditions: time hrs 18-24
[20] = Therapeutic index, ratio of MHC for human RBC to geometric mean of peptide MIC for Escherichia coli ATCC 25922; assay type: toxicity; conditions: human red blood cells (RBC), read-out: TI
[21] = Antibacterial activity against Salmonella pullorum 7913 after 18 to 24 hrs by CLSI-based broth microdilution method; assay type: functional, Salmonella enterica subsp. enterica serovar Pullorum; conditions: Salmonella enterica, time hrs 18-24
[22] = Therapeutic index, ratio of MHC for human RBC to geometric mean of peptide MIC for Salmonella pullorum 7913; assay type: toxicity; conditions: human red blood cells (RBC), read-out: TI
[23] = Cytotoxicity against mouse RAW264.7 cells assessed as cell viability at 128 uM by MTT assay relative to control; assay type: cell-based; conditions: read-out: Activity
[24] = tested on: Enterococcus faecalis; assay: Antibacterial activity against Enterococcus faecalis ATCC 29212 after 18 to 24 hrs by CLSI-based broth microdilution method; assay type: functional; conditions: time hrs 18-24
[25] = tested on: Staphylococcus aureus; assay: Antibacterial activity against Staphylococcus aureus ATCC 29213 after 18 to 24 hrs by CLSI-based broth microdilution method; assay type: functional; conditions: time hrs 18-24
[26] = tested on: Escherichia coli; assay: Antibacterial activity against Escherichia coli ATCC 25922 after 18 to 24 hrs by CLSI-based broth microdilution method; assay type: functional; conditions: time hrs 18-24
[27] = Therapeutic index, ratio of MHC for human RBC to geometric mean of peptide MIC for Salmonella typhimurium 7731; assay type: toxicity; conditions: human red blood cells (RBC), read-out: TI
[28] = tested on: Erythrocyte; assay: Hemolytic activity in human RBC assessed as hemolysis; assay type: ADME, cell-based

SMILES | selectivity ratio [1] | viability at 128 µM [2] [%] | MIC [3] [µM] | selectivity ratio [4] | selectivity ratio [5] | selectivity ratio [6] | hemolysis at up to 128 µM [7] [%] | MIC [8] [µM] | MIC [9] [µM] | MIC [10] [µM] | selectivity ratio [11] | selectivity ratio [12] | MIC [13] [µM] | selectivity ratio [14] | selectivity ratio [15] | MIC [16] [µM] | selectivity ratio [17] | MIC [18] [µM] | MIC [19] [µM] | selectivity ratio [20] | other results
CC[C@H](C)[C@H](N)C(=O)N[C@H](C(=O)N[C@H](C(=O)N[C@@H](CS)C(=O)N[C@@H](CCCNC(=N)N)C(=O)N[C@@H](CCCCN)C(=O)N1CCC[C@H]1C(=O)N[C@H](C(=O)N[C@H](C(=O)N[C@@H](CS)C(=O)N[C@@H](CCCNC(=N)N)C(=O)N[C@@H](CCCCN)C(=O)N1CCC[C@H]1C(=O)N[C@H](C(=O)N[C@H](C(=O)N[C@@H](CS)C(=O)N[C@@H](CCCNC(=N)N)C(=O)N[C@@H](CCCCN)C(=O)N1CCC[C@H]1C(=O)N[C@H](C(=O)N[C@H](C(=O)N[C@H](C(N)=O)[C@@H](C)CC)[C@@H](C)CC)[C@@H](C)CC)[C@@H](C)CC)[C@@H](C)CC)[C@@H](C)CC)[C@@H](C)CC)[C@@H](C)CC)[C@@H](C)CC (H-IIICRKPIICRKPIICRKPIII-NH2) | 2.52 | > 90 | 8 (≈ 20.8 µg/mL) | 2.52 | 16 | 2.52 | < 5 | > 64 | 8 (≈ 20.8 µg/mL) | 4 (≈ 10.4 µg/mL) | 2.52 | 16 | > 64 | 16 | 2.52 | 16 (≈ 41.6 µg/mL) | 2.52 | 16 (≈ 41.6 µg/mL) | > 64 | 16 | MIC [21]: 16 µM (≈ 41.6 µg/mL); selectivity ratio [22]: 16; viability at 128 µM [23]: > 90%; MIC [24]: > 64 µM; MIC [25]: > 64 µM; MIC [26]: 4 µM (≈ 10.4 µg/mL); selectivity ratio [27]: 16; MHC [28]: > 128 µM
CC[C@H](C)[C@H](N)C(=O)N[C@H](C(=O)N[C@H](C(=O)N[C@@H](CS)C(=O)N[C@@H](CCCNC(=N)N)C(=O)N[C@@H](CCCCN)C(=O)N1CCC[C@H]1C(=O)N[C@H](C(=O)N[C@H](C(=O)N[C@@H](CS)C(=O)N[C@@H](CCCNC(=N)N)C(=O)N[C@@H](CCCCN)C(=O)N1CCC[C@H]1C(=O)N[C@H](C(=O)N[C@H](C(=O)N[C@H](C(N)=O)[C@@H](C)CC)[C@@H](C)CC)[C@@H](C)CC)[C@@H](C)CC)[C@@H](C)CC)[C@@H](C)CC)[C@@H](C)CC (H-IIICRKPIICRKPIII-NH2) | 2 | > 90 | 32 (≈ 60.5 µg/mL) | 2 | 6.35 | 2 | < 5 | > 64 | 32 (≈ 60.5 µg/mL) | 8 (≈ 15.1 µg/mL) | 2 | 6.35 | > 64 | 6.35 | 2 | 32 (≈ 60.5 µg/mL) | 2 | 64 (≈ 121 µg/mL) | > 64 | 6.35 | MIC [21]: 32 µM (≈ 60.5 µg/mL); selectivity ratio [22]: 6.35; viability at 128 µM [23]: > 90%; MIC [24]: > 64 µM; MIC [25]: > 64 µM; MIC [26]: 8 µM (≈ 15.1 µg/mL); selectivity ratio [27]: 6.35; MHC [28]: > 128 µM
CC(C)[C@H](N)C(=O)N[C@@H](CS)C(=O)N[C@@H](CCCNC(=N)N)C(=O)N[C@@H](CCCCN)C(=O)N1CCC[C@H]1C(=O)N[C@H](C(=O)N[C@H](C(=O)N[C@@H](CS)C(=O)N[C@@H](CCCNC(=N)N)C(=O)N[C@@H](CCCCN)C(=O)N1CCC[C@H]1C(=O)N[C@H](C(N)=O)C(C)C)C(C)C)C(C)C (H-VCRKPVVCRKPV-NH2) | 2 | > 90 | > 64 | 2 | 2 | 2 | < 5 | > 64 | > 64 | > 64 | 2 | 2 | > 64 | 2 | 2 | > 64 | 2 | > 64 | > 64 | 2 | MIC [21]: > 64 µM; selectivity ratio [22]: 2; viability at 128 µM [23]: > 90%; MIC [24]: > 64 µM; MIC [25]: > 64 µM; MIC [26]: > 64 µM; selectivity ratio [27]: 2; MHC [28]: > 128 µM
CC(C)[C@H](N)C(=O)N[C@@H](CS)C(=O)N[C@@H](CCCNC(=N)N)C(=O)N[C@@H](CCCCN)C(=O)N1CCC[C@H]1C(=O)N[C@H](C(=O)N[C@H](C(=O)N[C@@H](CS)C(=O)N[C@@H](CCCNC(=N)N)C(=O)N[C@@H](CCCCN)C(=O)N1CCC[C@H]1C(=O)N[C@H](C(=O)N[C@H](C(=O)N[C@@H](CS)C(=O)N[C@@H](CCCNC(=N)N)C(=O)N[C@@H](CCCCN)C(=O)N1CCC[C@H]1C(=O)N[C@H](C(N)=O)C(C)C)C(C)C)C(C)C)C(C)C)C(C)C (H-VCRKPVVCRKPVVCRKPV-NH2) | 2 | > 90 | 8 (≈ 16.5 µg/mL) | 2 | 6.35 | 2 | < 5 | > 64 | 16 (≈ 33.1 µg/mL) | 16 (≈ 33.1 µg/mL) | 2 | 6.35 | > 64 | 6.35 | 2 | > 64 | 2 | > 64 | > 64 | 6.35 | MIC [21]: > 64 µM; selectivity ratio [22]: 6.35; viability at 128 µM [23]: > 90%; MIC [24]: > 64 µM; MIC [25]: > 64 µM; MIC [26]: 8 µM (≈ 16.5 µg/mL); selectivity ratio [27]: 6.35; MHC [28]: > 128 µM
